Read-outs that look alike come from different tables or passages of the source.
Target: Endothelial lipase (EL) (Homo sapiens (Human), UniProt Q9Y5X9)
Assay: EL assay: endothelial lipase activity with fluorescent substrate A10070 in DMPG vesicles
Assay type: biochemical
Method: Endothelial lipase (EL) and hepatic lipase (HL) activities were measured using a fluorescent substrate, A10070, (Invitrogen, CA) doped into an artificial vesicle containing DMPG (Avanti Polar Lipids) as the excipient. Vesicles were prepared by combining 571 μL of 29 mM DMPG in a 1:1 mixture of MeOH and CHCl3 with 2000 μL of 1 mM A10070 in a 1:1 mixture of MeOH and CHCl3. The mixture was dried under nitrogen in multiple vials then resuspended in 20 mL total volume of 50 mM HEPES pH 8.0 buffer containing 50 mM NaCl and 0.2 mM EDTA. The sample was allowed to sit at room temperature for 15 min and then was sonicated 3×4 mins on ice with a Branson Sonicator using duty cycle 1. This preparation provides vesicles with a mole fraction of 0.11 for the FRET substrate.
The enzymatic assay was measured using 384-well white Optiplates. Each well contained 20 μL of assay buffer (50 mM HEPES pH 8.0, 50 mM NaCl and 1 mM CaCl2) and 0.25 μL of a DMSO solution containing a compound of interest. EL or HL (10 μL) was added and allowed to incubate with the compound for 30 min at 37° C. The source of EL was conditioned media obtained from HT-1080 cells that were transformed using RAGE technology (Athersys) to overexpress endogenous EL, and HL was partially purified from conditioned media obtained from COS cells overexpressing HL. The reaction was started by the addition of 10 μL of a 1:10 dilution of vesicles. The final total reaction volume was […]. The reaction rates were measured on a Gemini plate reader with an excitation wavelength of 490 nm and an emission wavelength of 530 nm. Readings were taken over a period of 60 minutes, and the slope between 300 and 900 secs of the readout was used to calculate the rate of the reaction.

[1] = EL from conditioned media of HT-1080 cells, 30 min incubation with compound at 37° C., A10070/DMPG vesicles

Endothelial lipase (EL), sequence (Q9Y5X9 21-500): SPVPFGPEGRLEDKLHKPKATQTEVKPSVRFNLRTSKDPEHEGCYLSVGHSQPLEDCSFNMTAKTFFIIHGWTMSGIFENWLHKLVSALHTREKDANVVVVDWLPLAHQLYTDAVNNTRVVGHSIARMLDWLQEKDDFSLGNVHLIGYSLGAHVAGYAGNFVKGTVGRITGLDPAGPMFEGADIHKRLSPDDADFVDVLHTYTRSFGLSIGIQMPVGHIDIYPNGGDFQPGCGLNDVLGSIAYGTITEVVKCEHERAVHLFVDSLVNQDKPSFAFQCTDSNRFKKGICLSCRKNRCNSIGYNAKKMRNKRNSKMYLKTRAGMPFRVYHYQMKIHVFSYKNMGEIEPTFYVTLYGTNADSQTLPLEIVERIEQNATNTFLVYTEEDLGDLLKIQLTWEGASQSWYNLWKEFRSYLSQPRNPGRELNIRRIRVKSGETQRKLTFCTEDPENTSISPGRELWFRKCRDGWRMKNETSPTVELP

SMILES	IC50 [nM]	IC50 [1] [nM]
C=CCC(C(=O)NCCS(N)(=O)=O)c1nc2ccc(-c3ccccc3)cc2s1 (stereo not drawn) [Reference 1, 2-(6-Phenyl-1,3-benzothiazol-2-yl)-N-(2-sulfamoylethyl)-4-pentenamide, reference compound]	9400	–
CS(=O)(=O)C(C(=O)NCCS(N)(=O)=O)c1nc2ccc(-c3ccccc3)cc2s1 (stereo not drawn) [Example B1, 2-(Methylsulfonyl)-2-(6-phenylbenzo[d]thiazol-2-yl)-N-(2-sulfamoylethyl)acetamide]	–	< 10
Cc1nnc(CNC(=O)C(c2nc3cc(C)c(-c4ccccc4)cc3s2)S(=O)(=O)Cc2ccccc2)o1 (stereo not drawn) [Example B28, 2-(benzylsulfonyl)-N-((5-methyl-1,3,4-oxadiazol-2-yl)methyl)-2-(5-methyl-6-phenyl-1,3-benzothiazol-2-yl)acetamide]	–	12
CS(=O)(=O)C(C(=O)NCCS(=O)(=O)NCC(F)(F)F)c1nc2ccc(-c3ccnc(F)c3)cc2s1 (stereo not drawn) [Example B30, 2-(6-(2-Fluoro-4-pyridinyl)-1,3-benzothiazol-2-yl)-2-(methylsulfonyl)-N-(2-((2,2,2-trifluoroethyl)sulfamoyl)ethyl)acetamide]	–	277
C=CCS(=O)(=O)C(C(=O)NCCS(N)(=O)=O)c1nc2ccc(-c3ccc(CN4CCOCC4)cc3)cc2s1 (stereo not drawn) [Example B14, 2-(allylsulfonyl)-2-(6-(4-(4-morpholinylmethyl)phenyl)-1,3-benzothiazol-2-yl)-N-(2-sulfamoylethyl)acetamide]	–	< 10
COC(=O)Nc1ccc(-c2ccc3nc(C(C(=O)NCCS(N)(=O)=O)S(C)(=O)=O)sc3c2)cc1 (stereo not drawn) [Example B22, methyl (4-(2-(1-(methylsulfonyl)-2-oxo-2-((2-sulfamoylethyl)amino)ethyl)-1,3-benzothiazol-6-yl)phenyl)carbamate]	–	< 10
CCCS(=O)(=O)C(C(=O)NCCS(N)(=O)=O)c1nc2ccc(-c3ccnc(F)c3)cc2s1 (stereo not drawn) [Example B15, 2-(6-(2-fluoro-4-pyridinyl)-1,3-benzothiazol-2-yl)-2-(propylsulfonyl)-N-(2-sulfamoylethyl)acetamide]	–	< 10
CS(=O)(=O)C(C(=O)NCCS(N)(=O)=O)c1nc2ccc(-c3ccc(-n4cccn4)cc3)cc2s1 (stereo not drawn) [Example B21, 2-(methylsulfonyl)-2-(6-(4-(1H-pyrazol-1-yl)phenyl)-1,3-benzothiazol-2-yl)-N-(2-sulfamoylethyl)acetamide]	–	< 10
CC(=O)Nc1ccc(-c2ccc3nc(C(C(=O)NCCS(N)(=O)=O)S(C)(=O)=O)sc3c2)cc1 (stereo not drawn) [Example B16, 2-(6-(4-acetamidophenyl)-1,3-benzothiazol-2-yl)-2-(methylsulfonyl)-N-(2-sulfamoylethyl)acetamide]	–	40
CS(=O)(=O)C(C(=O)NCCS(N)(=O)=O)c1nc2ccc(-c3ccc(CN4CCOCC4)cc3)cc2s1 (stereo not drawn) [Example B13, 2-(methylsulfonyl)-2-(6-(4-(4-morpholinylmethyl)phenyl)-1,3-benzothiazol-2-yl)-N-(2-sulfamoylethyl)acetamide]	–	< 10
CS(=O)(=O)C(C(=O)NCCS(N)(=O)=O)c1nc2ccc(-c3ccc(Cl)nc3)cc2s1 (stereo not drawn) [Example B10, 2-(6-(6-chloro-3-pyridinyl)-1,3-benzothiazol-2-yl)-2-(methylsulfonyl)-N-(2-sulfamoylethyl)acetamide]	–	< 10
NC(=O)c1ccc(-c2cc3sc(C(C(=O)N[C@@H]4CCNC4=O)S(=O)(=O)Cc4ccccc4)nc3cc2F)cc1 (stereo partly drawn) [Example B27, 4-(2-(1-(benzylsulfonyl)-2-oxo-2-(((3R)-2-oxo-3-pyrrolidinyl)amino)ethyl)-5-fluoro-1,3-benzothiazol-6-yl)benzamide]	–	93
CCCC(=O)NC(C(=O)NCCS(N)(=O)=O)c1nc2ccc(-c3ccc(C(=O)N4CCOCC4)cc3)cc2s1 (stereo not drawn) [Example A5, N-(1-(6-(4-(morpholine-4-carbonyl)phenyl)benzo[d]thiazol-2-yl)-2-oxo-2-((2-sulfamoylethyl)amino)ethyl)butyramide]	–	< 10
CS(=O)(=O)C(C(=O)NCCS(N)(=O)=O)c1nc2ccc(-c3ccc(N4CCOCC4)cc3)cc2s1 (stereo not drawn) [Example B20, 2-(methylsulfonyl)-2-(6-(4-(4-morpholinyl)phenyl)-1,3-benzothiazol-2-yl)-N-(2-sulfamoylethyl)acetamide]	–	< 10
CC(C)c1cc(CNC(=O)C(C)(C)c2nc3ccc(-c4ccccc4)cc3s2)on1 [Reference 2, N-((3-isopropylisoxazol-5-yl)methyl)-2-methyl-2-(6-phenylbenzo[d]thiazol-2-yl)propanamide, reference compound]	–	> 62000
CN(C)S(=O)(=O)c1ccc(-c2ccc3nc(C(C(=O)NCCS(N)(=O)=O)S(C)(=O)=O)sc3c2)cc1 (stereo not drawn) [Example B17, 2-(6-(4-(dimethylsulfamoyl)phenyl)-1,3-benzothiazol-2-yl)-2-(methylsulfonyl)-N-(2-sulfamoylethyl)acetamide]	–	< 10
NS(=O)(=O)CCNC(=O)C(NC(=O)C(F)F)c1nc2ccc(-c3ccc(F)nc3)cc2s1 (stereo not drawn) [Example A4, 2-(2,2-difluoroacetamido)-2-(6-(6-fluoropyridin-3-yl)benzo[d]thiazol-2-yl)-N-(2-sulfamoylethyl)acetamide]	–	< 10
COc1ccc(-c2ccc3nc(C(C(=O)NCCS(N)(=O)=O)S(C)(=O)=O)sc3c2)cn1 (stereo not drawn) [Example B19, 2-(6-(6-methoxy-3-pyridinyl)-1,3-benzothiazol-2-yl)-2-(methylsulfonyl)-N-(2-sulfamoylethyl)acetamide]	–	< 10
NS(=O)(=O)CCNC(=O)C(c1nc2ccc(-c3ccc(F)nc3)cc2s1)S(=O)(=O)CCC(F)(F)F (stereo not drawn) [Example B7, 2-(6-(6-fluoropyridin-3-yl)benzo[d]thiazol-2-yl)-N-(2-sulfamoylethyl)-2-((3,3,3-trifluoropropyl)sulfonyl)acetamide]	–	< 10
CS(=O)(=O)C(C(=O)NCCS(N)(=O)=O)c1nc2ccc(-c3ccnc(F)c3)cc2s1 (stereo not drawn) [Example B8, 2-(6-(2-fluoro-4-pyridinyl)-1,3-benzothiazol-2-yl)-2-(methylsulfonyl)-N-(2-sulfamoylethyl)acetamide]	–	< 10
CS(=O)(=O)C(C(=O)NCCS(N)(=O)=O)c1nc2ccc(-c3ccc(F)nc3)cc2s1 (stereo not drawn) [Example B3, 2-(6-(6-fluoro-3-pyridinyl)-1,3-benzothiazol-2-yl)-2-(methylsulfonyl)-N-(2-sulfamoylethyl)acetamide]	–	< 10
Cc1noc(C)c1-c1ccc2nc(C(C(=O)NCCS(N)(=O)=O)S(C)(=O)=O)sc2c1 (stereo not drawn) [Example B4, 2-(6-(3,5-dimethyl-4-isoxazolyl)-1,3-benzothiazol-2-yl)-2-(methylsulfonyl)-N-(2-sulfamoylethyl)acetamide]	–	13
NS(=O)(=O)CCNC(=O)C(c1nc2c(F)cc(-c3ccccc3)cc2s1)S(=O)(=O)CCC(F)(F)F (stereo not drawn) [Example B26, 2-(4-Fluoro-6-phenylbenzo[d]thiazol-2-yl)-N-(2-sulfamoylethyl)-2-((3,3,3-trifluoropropyl)sulfonyl)acetamide]	–	< 10
CNc1ccc(-c2ccc3nc(C(C(=O)NCCS(N)(=O)=O)S(C)(=O)=O)sc3c2)cc1 (stereo not drawn) [Example B18, 2-(6-(4-(methylamino)phenyl)-1,3-benzothiazol-2-yl)-2-(methylsulfonyl)-N-(2-sulfamoylethyl)acetamide]	–	13
CS(=O)(=O)C(C(=O)NCCS(=O)(=O)Nc1ccccc1)c1nc2ccc(-c3ccnc(F)c3)cc2s1 (stereo not drawn) [Example B24, 2-(6-(2-fluoro-4-pyridinyl)-1,3-benzothiazol-2-yl)-2-(methylsulfonyl)-N-(2-(phenylsulfamoyl)ethyl)acetamide]	–	35
CS(=O)(=O)CCNC(=O)C(c1nc2ccc(-c3ccnc(F)c3)cc2s1)S(C)(=O)=O (stereo not drawn) [Example B23, 2-(6-(2-Fluoro-4-pyridinyl)-1,3-benzothiazol-2-yl)-2-(methylsulfonyl)-N-(2-(methylsulfonyl)ethyl)acetamide]	–	210
Cc1nnc(CNC(=O)C(NC(=O)NCc2ccccc2)c2nc3ccc(-c4ccc(F)cc4)cc3s2)o1 (stereo not drawn) [Example A9, 2-(3-Benzylureido)-2-(6-(4-fluorophenyl)benzo[d]thiazol-2-yl)-N-((5-methyl-1,3,4-oxadiazol-2-yl)methyl)acetamide]	–	50
NS(=O)(=O)CCNC(=O)C(c1nc2ccc(-c3ccc(F)nc3)cc2s1)S(=O)(=O)Cc1ccccc1 (stereo not drawn) [Example B5, 2-(benzylsulfonyl)-2-(6-(6-fluoro-3-pyridinyl)-1,3-benzothiazol-2-yl)-N-(2-sulfamoylethyl)acetamide]	–	< 10
CC(C)S(=O)(=O)C(C(=O)NCCS(N)(=O)=O)c1nc2ccc(-c3ccc(F)nc3)cc2s1 (stereo not drawn) [Example B12, 2-(6-(6-fluoro-3-pyridinyl)-1,3-benzothiazol-2-yl)-2-(isopropylsulfonyl)-N-(2-sulfamoylethyl)acetamide]	–	< 10
CC(=O)NC(C(=O)NCc1nnc(C)o1)c1nc2ccc(-c3ccc(F)cc3)cc2s1 (stereo not drawn) [Example A8, 2-acetamido-2-(6-(4-fluorophenyl)benzo[d]thiazol-2-yl)-N-((5-methyl-1,3,4-oxadiazol-2-yl)methyl)acetamide]	–	< 10
